Laboratory results as given in patent publication US12084472B2 (Ardelyx, Inc., priority 2015, dated 2024).

Molecular target: T1, human TGR5 (Homo sapiens, UniProt Q8TDU6)
T1 construct: expressed in transfected cells; host or cells: HEK293
T1 sequence (Q8TDU6 1-330): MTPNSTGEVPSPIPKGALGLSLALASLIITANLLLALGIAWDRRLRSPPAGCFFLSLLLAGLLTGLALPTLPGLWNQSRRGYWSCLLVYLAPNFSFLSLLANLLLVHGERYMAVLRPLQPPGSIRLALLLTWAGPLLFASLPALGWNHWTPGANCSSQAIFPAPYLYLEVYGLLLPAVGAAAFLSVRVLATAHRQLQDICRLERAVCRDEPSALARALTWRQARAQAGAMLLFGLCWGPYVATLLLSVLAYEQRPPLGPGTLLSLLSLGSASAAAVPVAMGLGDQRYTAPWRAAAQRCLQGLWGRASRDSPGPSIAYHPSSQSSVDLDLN
Assay: Cell-based TGR5 assay (cAMP generation, HTRF)
Details: HEK293 cells stably transfected with human TGR5; cAMP by HTRF; 30 minutes at 37° C.; read-out: pEC50 Human TGR5 (converted)
Summary of the method: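 Read-out was HTRF detection of cAMP, converted to concentration via a standard curve and fitted (3-parameter logistic) for pEC50 and maximal response. Agonist stimulation used HEK293 cells stably transfected with human TGR5, incubated 30 min at 37° C in IBMX-containing buffer at 0.05 nM to 10 μM compound.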

Structure (SMILES) | EC50
CN(CCCCNC(=O)NC[C@H](O)[C@@H](O)[C@H](O)[C@H](O)CO)S(=O)(=O)c1cc(CNC2(c3cnccc3-c3ccccc3OC3CC3)CC2)c(Cl)cc1F [Compound I-474, 1-(4-{N-methyl4-chloro-5-[({1-[4-(2-cyclopropoxyphenyl)pyridin-3-yl]cyclopropyl}amino)methyl]-2-fluorobenzenesulfonamido}butyl)-3-[(2S,3R,4R,5R)-2,3,4,5,6-pentahydroxyhexyl]urea] | < 0.1 µM
O=C(O)[C@@H](O)[C@@H](O)[C@H](O)[C@@H](O)CNC1CCN(C(=O)CCCCc2cc(Cl)c(COC3(c4cnccc4-c4ccccc4OC4CC4)CC3)cc2Cl)CC1 (stereo in doubt) [Compound I-173, (2S,3S,4R,5S)-6-[(1-{5-[2,5-dichloro-4-({1-[4-(2-cyclopropoxyphenyl)pyridin-3-yl]cyclopropoxy}methyl)phenyl]pentanoyl}piperidin-4-yl)amino]-2,3,4,5-tetrahydroxyhexanoic acid] | < 0.1 µM
CC[C@@H](O)CN(C[C@H](O)[C@@H](O)[C@H](O)[C@H](O)CO)C(=O)CCCCc1cc(Cl)c(COC2(c3cnccc3-c3ccccc3OC3CC3)CC2)cc1Cl [Compound I-123, 5-[2,5-dichloro-4-({1-[4-(2-cyclopropoxyphenyl)pyridin-3-yl]cyclopropoxy}methyl)phenyl]-N-[(2R)-2-hydroxybutyl]-N-[(2S,3R,4R,5R)-2,3,4,5,6-pentahydroxyhexyl]pentanamide] | < 0.1 µM
CS(=O)(=O)CCN(CCCSc1ccc(Cl)c(CNC2(c3cnccc3-c3ccccc3OC3CC3)CC2)c1)C(=O)[C@@H](O)[C@@H](O)[C@H](O)[C@@H](O)CO [Compound I-583, (2S,3S,4R,5S)-N-[3-({4-chloro-3-[({1-[4-(2-cyclopropoxyphenyl)pyridin-3-yl]cyclopropyl}amino)methyl]phenyl}sulfanyl)propyl]-2,3,4,5,6-pentahydroxy-N-(2-methanesulfonylethyl) hexanamide] | 0.126 to 1 µM
Cc1cc(COC2(c3cnccc3-c3ccccc3OC3CC3)CC2)c(Cl)cc1CCCCNC(=O)N[C@@H](C(=O)O)[C@@H](O)[C@H](O)[C@H](O)CO [Compound I-106, (2R,3R,4S,5R)-2-[({4-[5-chloro-4-({1-[4-(2-cyclopropoxyphenyl)pyridin-3-yl]cyclopropoxy}methyl)-2-methylphenyl]butyl}carbamoyl)amino]-3,4,5,6-tetrahydroxyhexanoic acid] | < 0.1 µM
CC(CCCC(=O)NC[C@H](O)[C@@H](O)[C@H](O)[C@H](O)CO)c1ccc(Cl)c(CNC2(c3cnccc3-c3ccccc3OC3CC3)CC2)c1 (stereo partly drawn) [Compound I-316, 5-{4-chloro-3-[({1-[4-(2-cyclopropoxyphenyl)pyridin-3-yl]cyclopropyl}amino)methyl]phenyl}-N-[(2S,3R,4R,5R)-2,3,4,5,6-pentahydroxyhexyl]hexanamide] | < 0.1 µM
COCCN(CCCCNC(=O)NC[C@H](O)[C@@H](O)[C@H](O)[C@H](O)CO)S(=O)(=O)c1ccc(Cl)c(COC2(c3cnccc3-c3ccccc3OC3CC3)CC2)c1 (stereo in doubt) [Compound I-407, 1-{4-[N-(2-methoxyethyl)4-chloro-3-({1-[4-(2-cyclopropoxyphenyl)pyridin-3-yl]cyclopropoxy}methyl)benzenesulfonamido]butyl}-3-[(2S,3R,4R,5R)-2,3,4,5,6-pentahydroxyhexyl]urea] | < 0.1 µM
CCOC(=O)NCCCN(CCCCSc1ccc(Cl)c(COC2(c3cnccc3-c3ccccc3OC3CC3)CC2)c1)C(=O)[C@@H](O)[C@@H](O)[C@H](O)[C@@H](O)CO [Compound I-578, ethyl N-{3-[(2S,3S,4R,5S)-N-(4-{[4-chloro-3-({1-[4-(2-cyclopropoxyphenyl)pyridin-3-yl]cyclopropoxy}methyl)phenyl]sulfanyl}butyl)-2,3,4,5,6-pentahydroxyhexanamido]propyl}carbamate] | < 0.1 µM
CC(=O)NCCCN(CCCCSc1ccc(Cl)c(CNC2(c3cnccc3-c3ccccc3OC3CC3)CC2)c1)C(=O)[C@@H](O)[C@@H](O)[C@H](O)[C@@H](O)CO [Compound I-573, (2S,3S,4R,5S)-N-[4-({4-chloro-3-[({1-[4-(2-cyclopropoxyphenyl)pyridin-3-yl]cyclopropyl}amino)methyl]phenyl}sulfanyl)butyl]-N-(3-acetamidopropyl)-2,3,4,5,6-pentahydroxyhexanamide] | 0.126 to 1 µM
O=C(O)CN(CCN(CC(=O)O)CC(=O)NCCOCCSc1ccc(Cl)c(COC2(c3cnccc3-c3ccccc3OC3CC3)CC2)c1)CC(=O)NCCOCCSc1ccc(Cl)c(COC2(c3cnccc3-c3ccccc3OC3CC3)CC2)c1 [Compound I-612, 2-({2-[(carboxymethyl)({[2-(2-{[4-chloro-3-({1-[4-(2-cyclopropoxyphenyl)pyridin-3-yl]cyclopropoxy}methyl)phenyl]sulfanyl}ethoxy)ethyl]carbamoyl}methyl)amino]ethyl}({[2-(2-{[4-chloro-3-({1-[4-(2-cyclopropoxyphenyl)pyridin-3-yl]cyclopropoxy}methyl)phenyl]sulfanyl}ethoxy)ethyl]carbamoyl}methyl)amino)acetic acid] | 0.126 to 1 µM
Cn1c(C(=O)N[C@@H](CO)[C@@H](O)[C@H](O)[C@H](O)CO)cnc1SCc1ccc(Cl)c(COC2(c3cnccc3-c3ccccc3OC3CC3)CC2)c1 [Compound I-759, 2-((4-chloro-3-((1-(4-(2-cyclopropoxyphenyl)pyridin-3-yl)cyclopropoxy)methyl)benzyl)thio)-1-methyl-N-((2S,3R,4S,5R)-1,3,4,5,6-pentahydroxyhexan-2-yl)-1H-imidazole-5-carboxamide] | 0.126 to 1 µM
CNS(=O)(=O)c1ccc(Cl)c(COC2(c3cnccc3-c3ccccc3OC3CC3)CC2)c1 [Compound I-394, 4-chloro-3-({1-[4-(2-cyclopropoxyphenyl)pyridin-3-yl]cyclopropoxy}methyl)-N-methylbenzene-1-sulfonamide] | < 0.1 µM
Cc1ccc(CCCCC(=O)N(C)C[C@H](O)[C@@H](O)[C@H](O)[C@H](O)CO)cc1COC1(c2cnccc2-c2ccccc2OC2CC2)CC1 (stereo in doubt) [Compound I-236, 5-[3-({1-[4-(2-cyclopropoxyphenyl)pyridin-3-yl]cyclopropoxy}methyl)-4-methylphenyl]-N-methyl-N-[(2S,3R,4R,5R)-2,3,4,5,6-pentahydroxyhexyl]pentanamide] | < 0.1 µM
CC(CCCCN(CCOCCO)C(=O)[C@@H](O)[C@@H](O)[C@H](O)[C@@H](O)CO)c1ccc(Cl)c(CNC2(c3cnccc3-c3ccccc3OC3CC3)CC2)c1 (stereo partly drawn) [Compound I-288, (2S,3S,4R,5S)-N-(5-{4-chloro-3-[({1-[4-(2-cyclopropoxyphenyl)pyridin-3-yl]cyclopropyl}amino)methyl]phenyl}hexyl)-2,3,4,5,6-pentahydroxy-N-[2-(2-hydroxyethoxy)ethyl]hexanamide] | < 0.1 µM
O=C(NCC1CCN(S(=O)(=O)c2ccc(Cl)c(COC3(c4cnccc4-c4ccccc4OC4CC4)CC3)c2)C1)NC[C@H](O)[C@@H](O)[C@H](O)[C@H](O)CO (stereo partly drawn) [Compound I-420, 1-({1-[4-chloro-3-({1-[4-(2-cyclopropoxyphenyl)pyridin-3-yl]cyclopropoxy}methyl)benzenesulfonyl]pyrrolidin-3-yl}methyl)-3-[(2S,3R,4R,5R)-2,3,4,5,6-pentahydroxyhexyl]urea] | < 0.1 µM
CC(CCCN(C(=O)[C@@H](O)[C@@H](O)[C@H](O)[C@@H](O)CO)C1CCS(=O)(=O)CC1)c1ccc(Cl)c(COC2(c3cnccc3-c3ccccc3OC3CC3)CC2)c1 (stereo partly drawn) [Compound I-311, (2S,3S,4R,5S)-N-{4-[4-chloro-3-({1-[4-(2-cyclopropoxyphenyl)pyridin-3-yl]cyclopropoxy}methyl)phenyl]pentyl}-N-(1,1-dioxo-1λ^6-thian-4-yl)-2,3,4,5,6-pentahydroxyhexanamide] | < 0.1 µM
O=C(O)CCC(=O)N(CCCCc1cc(Cl)c(COC2(c3cnccc3-c3ccccc3OC3CC3)CC2)cc1Cl)C[C@H](O)[C@@H](O)[C@H](O)[C@H](O)CO (stereo in doubt) [Compound I-187, 3-({4-[2,5-dichloro-4-({1-[4-(2-cyclopropoxyphenyl)pyridin-3-yl]cyclopropoxy}methyl)phenyl]butyl}[(2S,3R,4R,5R)-2,3,4,5,6-pentahydroxyhexyl]carbamoyl)propanoic acid] | < 0.1 µM
O=C(/C=C/C1CN(S(=O)(=O)c2ccc(Cl)c(COC3(c4cnccc4-c4ccccc4OC4CC4)CC3)c2)C1)NC[C@H](O)[C@@H](O)[C@H](O)[C@H](O)CO [Compound I-446, (2E)-3-{1-[4-chloro-3-({1-[4-(2-cyclopropoxyphenyl)pyridin-3-yl]cyclopropoxy}methyl)benzenesulfonyl]azetidin-3-yl}-N-[(2S,3R,4R,5R)-2,3,4,5,6-pentahydroxyhexyl]prop-2-enamide] | < 0.1 µM
CN(C)S(=O)(=O)CCN(C[C@H](O)[C@@H](O)[C@H](O)[C@H](O)CO)C(=O)CCCSc1ccc(Cl)c(COC2(c3cnccc3-c3ccccc3OC3CC3)CC2)c1 [Compound I-693, 4-{[4-chloro-3-({1-[4-(2-cyclopropoxyphenyl)pyridin-3-yl]cyclopropoxy}methyl)phenyl]sulfanyl}-N-[2-(dimethylsulfamoyl)ethyl]-N-[(2S,3R,4R,5R)-2,3,4,5,6-pentahydroxyhexyl]butanamide] | 0.126 to 1 µM
